Data published in patent US20100022509A1, “Inhibitors of MshC and Homologs Thereof, and Methods of Identifying Same” (priority 2006, published 2010).

Each compound was assayed against T1, MshC (Mycobacterium tuberculosis, UniProt P9WJM9) (assay: biochemical). Details: not given.
T1 sequence (P9WJM9 1-414): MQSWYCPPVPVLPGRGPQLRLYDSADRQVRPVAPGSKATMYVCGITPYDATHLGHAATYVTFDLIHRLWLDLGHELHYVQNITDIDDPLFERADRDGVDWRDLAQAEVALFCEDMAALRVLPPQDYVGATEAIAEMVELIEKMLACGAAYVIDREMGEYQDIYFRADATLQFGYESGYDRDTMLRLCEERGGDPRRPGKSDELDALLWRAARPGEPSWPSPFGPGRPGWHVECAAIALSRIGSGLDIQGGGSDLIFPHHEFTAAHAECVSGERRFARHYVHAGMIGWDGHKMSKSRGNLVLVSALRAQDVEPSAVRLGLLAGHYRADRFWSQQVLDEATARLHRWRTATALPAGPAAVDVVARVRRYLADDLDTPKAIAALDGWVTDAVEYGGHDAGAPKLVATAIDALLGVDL
Assay type: biochemical, M. tuberculosis
`O=C(NCCCN1CCN(Cc2ccccc2)CC1)c1ccc2c(c1)N(Cc1ccccc1)C(=O)c1ccccc1S2(=O)=O` [Inhibitor 83-52] was tested, and the “inhibition of MshC in words, compounds lacking the basic amino group or with groups in excess of 10 carbons on the remote amino residue” value (shortened to “inhibition of MshC … on the remote amino residue”) was “little or no inhibition”.
`CN(CCNC(=O)c1ccc2c(c1)N(Cc1ccccc1)C(=O)c1ccccc1S2(=O)=O)C1CCCCC1` [Inhibitor 83-54] was tested, and the “inhibition of MshC in words, 1,3-diaminopropyl residue with remote amino residue capable of protonation” value (“inhibition of MshC in words … of protonation” below) was “measurable inhibition” and the “inhibition of MshC in words, Z benzyl moiety with methyl groups in the 2,5 positions or unsubstituted” value was “Weak but detectable inhibition”.
`O=C(NCCCSC1CCCCC1)c1ccc2c(c1)N(Cc1ccccc1)C(=O)c1ccccc1S2(=O)=O` [Inhibitor 83-55] was tested, and the “inhibition of MshC … on the remote amino residue” value was “little or no inhibition”.
In the case of `O=C(NCCN1CCN(Cc2ccccc2)CC1)c1ccc2c(c1)N(Cc1cccc(Cl)c1)C(=O)c1ccccc1[S+]2[O-]` (centres unmarked) [Inhibitor 83-56], the “inhibition of MshC … on the remote amino residue” value is reported as “little or no inhibition”.
In the case of `O=C(NCCCC1CCCCCC1)c1ccc2c(c1)N(Cc1cccc(Cl)c1)C(=O)c1ccccc1S2(=O)=O` [Inhibitor 83-58], the “inhibition of MshC in words, Z is a benzyl moiety bearing one or more halogens” value is reported as “Measurable inhibition”.
In the case of `O=C(NCCCSC1CCCCC1)c1ccc2c(c1)N(Cc1cccc(Cl)c1)C(=O)c1ccccc1[S+]2[O-]` (centres unmarked) [Inhibitor 83-61], the “inhibition of MshC … on the remote amino residue” value is reported as “little or no inhibition”.
`O=C(NCCN1CCN(Cc2ccccc2)CC1)c1ccc2c(c1)N(Cc1cccc(Cl)c1)C(=O)c1ccccc1[S+]2[O-]` (centres unmarked) [Inhibitor 83-62] was tested, and the “inhibition of MshC … on the remote amino residue” value was “little or no inhibition”.
With `CC1CCCN(CCCNC(=O)c2ccc3c(c2)N(Cc2cccc(Cl)c2)C(=O)c2ccccc2[S+]3[O-])C1` (centres unmarked) [Inhibitor 83-64] the “inhibition of MshC in words … of protonation” value was “measurable inhibition” and the “inhibition of MshC in words, Z is a benzyl moiety bearing one or more halogens” value was “Measurable inhibition”.
In the case of `CC1CC(C)CN(CCCNC(=O)c2ccc3c(c2)N(Cc2cccc(Cl)c2)C(=O)c2ccccc2[S+]3[O-])C1` (centres unmarked) [Inhibitor 83-65], the “inhibition of MshC in words … of protonation” value is reported as “measurable inhibition” and the “inhibition of MshC in words, Z is a benzyl moiety bearing one or more halogens” value is reported as “Measurable inhibition”.
With `CCC1CCCN(CCCNC(=O)c2ccc3c(c2)N(Cc2cccc(Cl)c2)C(=O)c2ccccc2[S+]3[O-])C1` (centres unmarked) [Inhibitor 83-66] the “inhibition of MshC in words … of protonation” value was “measurable inhibition” and the “inhibition of MshC in words, Z is a benzyl moiety bearing one or more halogens” value was “Measurable inhibition”.
In the case of `O=C(NCCN1CCN(Cc2ccccc2)CC1)c1ccc2c(c1)N(Cc1cccc(Cl)c1)C(=O)c1ccccc1[S+]2[O-]` (centres unmarked) [Inhibitor 83-69], the “inhibition of MshC … on the remote amino residue” value is reported as “little or no inhibition”.
For `O=C(NCCCN1CCOCC1)c1ccc2c(c1)N(Cc1cccc(Cl)c1)C(=O)c1ccccc1[S+]2[O-]` (centres unmarked) [Inhibitor 83-70], the “inhibition of MshC in words … of protonation” value was “measurable inhibition”, the “inhibition of MshC in words, Z is a benzyl moiety bearing one or more halogens” value was “Measurable inhibition” and the “inhibition of MshC in words, compounds grouped by X” value (from here on “inhibition of MshC in words … by X”) was “Significant inhibition”.
For `O=C(NCCCN1CCCC1)c1ccc2c(c1)N(Cc1cccc(Cl)c1)C(=O)c1ccccc1[S+]2[O-]` (centres unmarked) [Inhibitor 83-72], the “inhibition of MshC in words … of protonation” value was “measurable inhibition” and the “inhibition of MshC in words, Z is a benzyl moiety bearing one or more halogens” value was “Measurable inhibition”.
For `CCCN(CCC)CCCNC(=O)c1ccc2c(c1)N(Cc1cccc(Cl)c1)C(=O)c1ccccc1[S+]2[O-]` (centres unmarked) [Inhibitor 83-73], the “inhibition of MshC in words … of protonation” value was “measurable inhibition” and the “inhibition of MshC in words, Z is a benzyl moiety bearing one or more halogens” value was “Measurable inhibition”.
With `CCCCSCCCNC(=O)c1ccc2c(c1)N(Cc1cccc(Cl)c1)C(=O)c1ccccc1[S+]2[O-]` (centres unmarked) [Inhibitor 83-74] the “inhibition of MshC … on the remote amino residue” value was “little or no inhibition”.
`O=C(NCCN1CCCCCC1)c1ccc2c(c1)N(Cc1cccc(Cl)c1)C(=O)c1ccccc1[S+]2[O-]` (centres unmarked) [Inhibitor 83-75] was tested, and the “inhibition of MshC in words … of protonation” value was “measurable inhibition” and the “inhibition of MshC in words, Z is a benzyl moiety bearing one or more halogens” value was “Measurable inhibition”.
With `O=C(NCCCN1CCCC1)c1ccc2c(c1)N(Cc1cccc(Cl)c1)C(=O)c1ccccc1S2(=O)=O` [Inhibitor 83-78] the “inhibition of MshC in words … of protonation” value was “measurable inhibition” and the “inhibition of MshC in words, Z is a benzyl moiety bearing one or more halogens” value was “Measurable inhibition”.
In the case of `O=C(NCCN1CCN(Cc2ccccc2)CC1)c1ccc2c(c1)N(Cc1cccc(Cl)c1)C(=O)c1ccccc1S2(=O)=O` [Inhibitor 83-79], the “inhibition of MshC … on the remote amino residue” value is reported as “little or no inhibition”.

Same assay, conditions: IC50
Compound `O=C(NCCCN1CCN(Cc2ccccc2)CC1)c1ccc2c(c1)N(Cc1ccccc1)C(=O)c1ccccc1S2(=O)=O` [Inhibitor 83-52] has an IC50 of 2500 ± 1200 µM.
`CN(CCNC(=O)c1ccc2c(c1)N(Cc1ccccc1)C(=O)c1ccccc1S2(=O)=O)C1CCCCC1` [Inhibitor 83-54] showed an IC50 of 510 ± 80 µM.
In the case of `O=C(NCCCSC1CCCCC1)c1ccc2c(c1)N(Cc1ccccc1)C(=O)c1ccccc1S2(=O)=O` [Inhibitor 83-55], the IC50 is reported as greater than 3000 µM.
With `O=C(NCCN1CCN(Cc2ccccc2)CC1)c1ccc2c(c1)N(Cc1cccc(Cl)c1)C(=O)c1ccccc1[S+]2[O-]` (centres unmarked) [Inhibitor 83-56] the IC50 was greater than 3000 µM.
Work on `O=C(NCCCC1CCCCCC1)c1ccc2c(c1)N(Cc1cccc(Cl)c1)C(=O)c1ccccc1S2(=O)=O` [Inhibitor 83-58] yielded an IC50 of no less than 500 µM.
`O=C(NCCCSC1CCCCC1)c1ccc2c(c1)N(Cc1cccc(Cl)c1)C(=O)c1ccccc1[S+]2[O-]` (centres unmarked) [Inhibitor 83-61] was tested, and the IC50 was roughly 1000 µM.
`O=C(NCCN1CCN(Cc2ccccc2)CC1)c1ccc2c(c1)N(Cc1cccc(Cl)c1)C(=O)c1ccccc1[S+]2[O-]` (centres unmarked) [Inhibitor 83-62] showed an IC50 of 2100 ± 900 µM.
Work on `CC1CCCN(CCCNC(=O)c2ccc3c(c2)N(Cc2cccc(Cl)c2)C(=O)c2ccccc2[S+]3[O-])C1` (centres unmarked) [Inhibitor 83-64] yielded an IC50 of 150 ± 30 µM.
`CCC1CCCN(CCCNC(=O)c2ccc3c(c2)N(Cc2cccc(Cl)c2)C(=O)c2ccccc2[S+]3[O-])C1` (centres unmarked) [Inhibitor 83-66] was tested, and the IC50 was 80 ± 20 µM.
Compound `O=C(NCCN1CCN(Cc2ccccc2)CC1)c1ccc2c(c1)N(Cc1cccc(Cl)c1)C(=O)c1ccccc1[S+]2[O-]` (centres unmarked) [Inhibitor 83-69] has an IC50 of 2500 ± 700 µM.
Compound `O=C(NCCCN1CCOCC1)c1ccc2c(c1)N(Cc1cccc(Cl)c1)C(=O)c1ccccc1[S+]2[O-]` (centres unmarked) [Inhibitor 83-70] has an IC50 of 470 ± 130 µM.
Work on `O=C(NCCCN1CCCC1)c1ccc2c(c1)N(Cc1cccc(Cl)c1)C(=O)c1ccccc1[S+]2[O-]` (centres unmarked) [Inhibitor 83-72] yielded an IC50 of 97 ± 26 µM.
In the case of `CCCN(CCC)CCCNC(=O)c1ccc2c(c1)N(Cc1cccc(Cl)c1)C(=O)c1ccccc1[S+]2[O-]` (centres unmarked) [Inhibitor 83-73], the IC50 is reported as roughly 200 µM.
For `CCCCSCCCNC(=O)c1ccc2c(c1)N(Cc1cccc(Cl)c1)C(=O)c1ccccc1[S+]2[O-]` (centres unmarked) [Inhibitor 83-74], the IC50 was greater than 3000 µM.
`O=C(NCCN1CCCCCC1)c1ccc2c(c1)N(Cc1cccc(Cl)c1)C(=O)c1ccccc1[S+]2[O-]` (centres unmarked) [Inhibitor 83-75] gave an IC50 of roughly 80 µM.
Compound `O=C(NCCCN1CCCC1)c1ccc2c(c1)N(Cc1cccc(Cl)c1)C(=O)c1ccccc1S2(=O)=O` [Inhibitor 83-78] has an IC50 of roughly 500 µM.
Compound `O=C(NCCN1CCN(Cc2ccccc2)CC1)c1ccc2c(c1)N(Cc1cccc(Cl)c1)C(=O)c1ccccc1S2(=O)=O` [Inhibitor 83-79] has an IC50 greater than 3000 µM.

Same assay, conditions: X=S, X=SO, X=SO2
`CN(CCNC(=O)c1ccc2c(c1)N(Cc1ccccc1)C(=O)c1ccccc1S2(=O)=O)C1CCCCC1` [Inhibitor 83-54] was tested, and the “inhibition of MshC in words … by X” value was “Significant inhibition”.
For `CC1CCCN(CCCNC(=O)c2ccc3c(c2)N(Cc2cccc(Cl)c2)C(=O)c2ccccc2[S+]3[O-])C1` (centres unmarked) [Inhibitor 83-64], the “inhibition of MshC in words … by X” value was “Significant inhibition”.
For `CC1CC(C)CN(CCCNC(=O)c2ccc3c(c2)N(Cc2cccc(Cl)c2)C(=O)c2ccccc2[S+]3[O-])C1` (centres unmarked) [Inhibitor 83-65], the “inhibition of MshC in words … by X” value was “Significant inhibition”.
For `CCC1CCCN(CCCNC(=O)c2ccc3c(c2)N(Cc2cccc(Cl)c2)C(=O)c2ccccc2[S+]3[O-])C1` (centres unmarked) [Inhibitor 83-66], the “inhibition of MshC in words … by X” value was “Significant inhibition”.
`O=C(NCCCN1CCCC1)c1ccc2c(c1)N(Cc1cccc(Cl)c1)C(=O)c1ccccc1[S+]2[O-]` (centres unmarked) [Inhibitor 83-72] was tested, and the “inhibition of MshC in words … by X” value was “Significant inhibition”.
In the case of `CCCN(CCC)CCCNC(=O)c1ccc2c(c1)N(Cc1cccc(Cl)c1)C(=O)c1ccccc1[S+]2[O-]` (centres unmarked) [Inhibitor 83-73], the “inhibition of MshC in words … by X” value is reported as “Significant inhibition”.
In the case of `O=C(NCCN1CCCCCC1)c1ccc2c(c1)N(Cc1cccc(Cl)c1)C(=O)c1ccccc1[S+]2[O-]` (centres unmarked) [Inhibitor 83-75], the “inhibition of MshC in words … by X” value is reported as “Significant inhibition”.
With `O=C(NCCCN1CCCC1)c1ccc2c(c1)N(Cc1cccc(Cl)c1)C(=O)c1ccccc1S2(=O)=O` [Inhibitor 83-78] the “inhibition of MshC in words … by X” value was “Significant inhibition”.
